# Source: patent US10441593B2, “Treatment of pain associated with dislocation of endometrium” (PREGLEM S.A., priority 2010, dated 2019)
# Values joined by “and” are separate entries in the source; they are usually repeats but may differ in a detail not shown here. Equal values may be shown once.
# What was measured:
# [1] = tested on: patients with heavy menstrual bleeding and pain who had adenomyosis; assay: Clinical study: 13 weeks oral 5 mg or 10 mg ulipristal in patients with adenomyosis (Example 1); format: in vivo, human
# Procedure: A double-blinded, randomized, placebo-controlled study evaluating the effect of long term (13 weeks) oral administration of 5 mg or 10 mg ulipristal in patients with heavy menstrual bleeding and pain included 5 patients who had adenomyosis.
# These patients included women 36 years of age or older diagnosed by MRI with adenomyosis but no evidence of uterine fibroid.
# The patients were randomized as follows: 1 patient received a daily placebo treatment (matching Esmya tablet appearance) and iron 80 mg/day, 2 patients received a daily dose of 5 mg ulipristal (Esmya®) and iron 80 mg/day and 2 patients received a daily dose of 10 mg ulipristal (Esmya®) and iron 80 mg/day for 13 weeks.
# Different parameters were assessed before treatment (Baseline) and after the end of treatment (13 weeks): • The PBAC score (Pictorial Blood Loss Assessment Chart) gives an estimation of the menstrual blood loss. This score was measured before treatment and continuing up to week 13 of treatment. Normal menstrual bleeding score is <75. Abnormal bleeding (menorrhagia) is characterized by a PBAC score >100. Higher the score, worse is the bleeding. • The Uterine volume was estimated before treatment (Baseline Uterine volume) and the % change in uterine volume was reported at the end of the treatment (week 13). • The SF-M P QPart A (short form of the Mc Gill Pain questionnaire) was used as a measure of the sensory, affective and intensity dimensions of pain. The pain was estimated before treatment and the change was reported at the end of the treatment (week 13). (NOTE: The lowest is the score, the better it is). • The SF-MPQ Part B (short form of the Mc Gill Pain questionnaire) wherein the pain is assessed with a visual analogue scale (VAS) before treatment and the change was reported at the end of the treatment (week 13). (NOTE: The lowest is the score, the better it is). • Discomfort questionnaire (disease specific quality of life questionnaire) estimating the quality of life before treatment and the change was reported at the end of the treatment (week 13). (NOTE: The lowest is the score, the better it is). • The level of Hb (Hemoglobin) was measured before treatment and at the end of the treatment. (NOTE: the higher it is, the better it is.) 3. Results
# [2] = tested on: patients with heavy menstrual bleeding and pain; assay: Hepatobiliary Disorders and Liver Safety analysis (Example 3); format: in vivo, human
# Procedure: A double-blinded, randomized, study evaluating the effect of long term oral administration of 5 mg or 10 mg ulipristal in patients with heavy menstrual bleeding and pain. A Hepatobiliary Disorders and Liver Safety analysis was carried out for all patients. This summary table illustrates the increased number of subjects from the 3 treatment groups who had increased levels of AST, ALT and total bilirubin during the study.
# [3] = 5 mg/day + iron 80 mg/day, 13 weeks, patient 130/1368, adenomyosis
# [4] = 5 mg/day + iron 80 mg/day, 13 weeks, patient 142/1036, adenomyosis
# [5] = 10 mg/day + iron 80 mg/day, 13 weeks, patient 148/1427, adenomyosis
# [6] = 10 mg/day + iron 80 mg/day, 13 weeks, patient 154/1240, adenomyosis
# [7] = daily dose of 5 mg or 10 mg, examples 1 and 2
# [8] = Ulipristal 5 mg (n = 97), Week 5
# [9] = Ulipristal 5 mg (n = 97), Week 9
# [10] = Ulipristal 5 mg (n = 97), Week 13
# [11] = Ulipristal 5 mg (n = 97), Week 17
# [12] = Ulipristal 10 mg (n = 103), Week 5
# [13] = Ulipristal 10 mg (n = 103), Week 9
# [14] = Ulipristal 10 mg (n = 103), Week 13
# [15] = Ulipristal 10 mg (n = 103), Week 17
compound,measurement,setting,value
"CC(=O)O[C@]1(C(C)=O)CC[C@H]2[C@@H]3CCC4=CC(=O)CCC4=C3[C@@H](c3ccc(N(C)C)cc3)C[C@@]21C [Ulipristal, 17α-acetoxy-11β-[4-N,N-dimethylamino-phenyl)-19-norpregna-4,9-diene-3,20-dione]",% change in uterine volume at week 13,[1]; [3],−21.5%
same,Change in PBAC,[1]; [3],−232
same,Discomfort questionnaire Change at Week 13,[1]; [3],−5
same,Hb at Week 13,[1]; [3],13.5 g/dL
same,PBAC at week 13,[1]; [3],0
same,SF-MPQ Part A Change at Week 13,[1]; [3],−5
same,SF-MPQ Part B (VAS) Change at Week 13,[1]; [3],−7
same,% change in uterine volume at week 13,[1]; [4],+0.4%
same,Change in PBAC,[1]; [4],−994
same,Discomfort questionnaire Change at Week 13,[1]; [4],−9
same,Hb at Week 13,[1]; [4],14 g/dL
same,PBAC at week 13,[1]; [4],0
same,SF-MPQ Part A Change at Week 13,[1]; [4],0
same,SF-MPQ Part B (VAS) Change at Week 13,[1]; [4],−6
same,"pain at 10 mg, both patients","[1]; 10 mg, both patients, adenomyosis",Very substantial improvement in pain
same,"pain at 10 mg, one of the patients","[1]; 10 mg, one of the two patients, adenomyosis",complete absence of pain
same,% change in uterine volume at week 13,[1]; [5],36.4%
same,Change in PBAC,[1]; [5],−624
same,Discomfort questionnaire Change at Week 13,[1]; [5],−20
same,Hb at Week 13,[1]; [5],13.6 g/dL
same,PBAC at week 13,[1]; [5],0
same,SF-MPQ Part A Change at Week 13,[1]; [5],−2
same,SF-MPQ Part B (VAS) Change at Week 13,[1]; [5],−43
same,% change in uterine volume at week 13,[1]; [6],−32.0%
same,Change in PBAC,[1]; [6],−536
same,Discomfort questionnaire Change at Week 13,[1]; [6],−12
same,Hb at Week 13,[1]; [6],12.1 g/dL
same,PBAC at week 13,[1]; [6],0
same,SF-MPQ Part A Change at Week 13,[1]; [6],−14
same,SF-MPQ Part B (VAS) Change at Week 13,[1]; [6],−93
same,PBAC score at the end of treatment (week 13),"[1]; all 4 patients treated with 5 mg or 10 mg, adenomyosis",0
same,pain as measured with the SF-MPQ Part B (VAS) compared to the placebo treated patient,"[1]; all four patients, 5 mg or 10 mg, 13 weeks, adenomyosis",improvements in pain
same,quality of life compared to the placebo treated patient,"[1]; all four patients, 5 mg or 10 mg, adenomyosis",substantial improvement in the quality of life
same,Hb at the end of the treatment,"[1]; all four patients, 5 mg or 10 mg, concomitant iron 80 mg once daily",increase in Hb
same,PBAC score at the end of the treatment,[1]; [7],amenorrhea
same,uterine volume at the end of treatment,[1]; [7],decrease in uterine volume
same,levels of Hb during the treatment,"[1]; daily dose of 5 mg or 10 mg, with or without concomitant iron",increased
same,% change in uterine volume at week 13,"[1]; individual ulipristal treated patients (5 mg or 10 mg), adenomyosis",+36.4% and +0.4% and −21.5% and −32%
same,"pain relief, 10 mg compared to 5 mg","[1]; patients treated at 10 mg vs patients that received 5 mg, adenomyosis",better pain relief
same,treatment related changes in liver function tests,"[2]; 5 mg or 10 mg, long term oral administration",no signals of any treatment related changes in liver function tests
same,"ALT High not CS, number (%) of subjects",[2]; [8],4 (4.1%)
same,"ALT Low not CS, number (%) of subjects",[2]; [8],0
same,"AST High not CS, number (%) of subjects",[2]; [8],6 (6.2%)
same,"AST Low not CS, number (%) of subjects",[2]; [8],0
same,"Total bilirubin High CS, number (%) of subjects",[2]; [8],0
same,"Total bilirubin High not CS, number (%) of subjects",[2]; [8],2 (2.1%)
same,"Total bilirubin Low not CS, number (%) of subjects",[2]; [8],0
same,"ALT High not CS, number (%) of subjects",[2]; [9],0
same,"ALT Low not CS, number (%) of subjects",[2]; [9],0
same,"AST High not CS, number (%) of subjects",[2]; [9],3 (3.1%)
same,"AST Low not CS, number (%) of subjects",[2]; [9],0
same,"Total bilirubin High not CS, number (%) of subjects",[2]; [9],3 (3.1%)
same,"Total bilirubin Low not CS, number (%) of subjects",[2]; [9],0
same,"ALT High not CS, number (%) of subjects",[2]; [10],1 (1.0%)
same,"ALT Low not CS, number (%) of subjects",[2]; [10],0
same,"AST High not CS, number (%) of subjects",[2]; [10],2 (2.1%)
same,"AST Low not CS, number (%) of subjects",[2]; [10],0
same,"Total bilirubin High not CS, number (%) of subjects",[2]; [10],3 (3.1%)
same,"Total bilirubin Low not CS, number (%) of subjects",[2]; [10],0
same,"ALT High CS, number (%) of subjects",[2]; [11],0
same,"ALT High not CS, number (%) of subjects",[2]; [11],2 (2.1%)
same,"ALT Low not CS, number (%) of subjects",[2]; [11],0
same,"AST High not CS, number (%) of subjects",[2]; [11],3 (3.1%)
same,"AST Low not CS, number (%) of subjects",[2]; [11],0
same,"Total bilirubin High not CS, number (%) of subjects",[2]; [11],2 (2.1%)
same,"Total bilirubin Low not CS, number (%) of subjects",[2]; [11],0
same,"subjects with elevations of both AST and ALT above 2×ULN, but <3×ULN for consecutive samples",[2]; Ulipristal 5 mg group,1 subject
same,"ALT High not CS, number (%) of subjects",[2]; [12],6 (5.8%)
same,"ALT Low not CS, number (%) of subjects",[2]; [12],0
same,"AST High not CS, number (%) of subjects",[2]; [12],6 (5.8%)
same,"AST Low not CS, number (%) of subjects",[2]; [12],0
same,"Total bilirubin High CS, number (%) of subjects",[2]; [12],0
same,"Total bilirubin High not CS, number (%) of subjects",[2]; [12],3 (2.9%)
same,"Total bilirubin Low not CS, number (%) of subjects",[2]; [12],0
same,"ALT High not CS, number (%) of subjects",[2]; [13],3 (2.9%)
same,"ALT Low not CS, number (%) of subjects",[2]; [13],0
same,"AST High not CS, number (%) of subjects",[2]; [13],3 (2.9%)
same,"AST Low not CS, number (%) of subjects",[2]; [13],0
same,"Total bilirubin High not CS, number (%) of subjects",[2]; [13],4 (3.9%)
same,"Total bilirubin Low not CS, number (%) of subjects",[2]; [13],0
same,"ALT High not CS, number (%) of subjects",[2]; [14],5 (4.9%)
same,"ALT Low not CS, number (%) of subjects",[2]; [14],0
same,"AST High not CS, number (%) of subjects",[2]; [14],4 (3.9%)
same,"AST Low not CS, number (%) of subjects",[2]; [14],0
same,"Total bilirubin High not CS, number (%) of subjects",[2]; [14],6 (5.8%)
same,"Total bilirubin Low not CS, number (%) of subjects",[2]; [14],0
same,"ALT High CS, number (%) of subjects",[2]; [15],0
same,"ALT High not CS, number (%) of subjects",[2]; [15],4 (3.9%)
same,"ALT Low not CS, number (%) of subjects",[2]; [15],0
same,"AST High not CS, number (%) of subjects",[2]; [15],4 (3.9%)
same,"AST Low not CS, number (%) of subjects",[2]; [15],0
same,"Total bilirubin High not CS, number (%) of subjects",[2]; [15],2 (1.9%)
same,"Total bilirubin Low not CS, number (%) of subjects",[2]; [15],0
same,"subjects with elevations of both AST and ALT above 2×ULN, but <3×ULN for consecutive samples",[2]; Ulipristal 10 mg group,2 subjects
same,liver toxicity based on Treatment Emergent Adverse Events (TEAEs),[2]; clinical studies,no evidence of liver toxicity
